For assay [1], the target named is Platelet-derived growth factor receptor beta (Homo sapiens, UniProt P09619). The assay can be described thus: Test concentration required to achieve 50% inhibition of tyrosine phosphorylation on human Platelet-derived growth factor receptor beta (PDGF RTK).
Assay [2] has as its target Epidermal growth factor receptor (Homo sapiens, UniProt P00533). Briefly: Concentration required to achieve 50% inhibition of tyrosine phosphorylation on human Epidermal growth factor receptor (EGF RTK).
Another assay has as its target FLK-1 receptor (Mus musculus, UniProt P35918). Briefly: Concentration required to achieve 50% inhibition of tyrosine phosphorylation on murine VEGF receptor (FLK-1 RTK).
The target of assay [3] is Receptor tyrosine-protein kinase erbB-2 (Homo sapiens, UniProt P04626). The assay can be described thus: Concentration required to achieve 50% inhibition of tyrosine phosphorylation on human Her-2 receptor tyrosine kinase (HER-2 RTK).
Assay [4] has as its target Insulin-like growth factor 1 receptor (Homo sapiens, UniProt P08069). Briefly: Concentration required to achieve 50% inhibition of tyrosine phosphorylation on human Insulin-like growth factor I receptor.

Molecules are shown by their SMILES.

Sequence of Receptor tyrosine-protein kinase erbB-2 (P04626 whole entry): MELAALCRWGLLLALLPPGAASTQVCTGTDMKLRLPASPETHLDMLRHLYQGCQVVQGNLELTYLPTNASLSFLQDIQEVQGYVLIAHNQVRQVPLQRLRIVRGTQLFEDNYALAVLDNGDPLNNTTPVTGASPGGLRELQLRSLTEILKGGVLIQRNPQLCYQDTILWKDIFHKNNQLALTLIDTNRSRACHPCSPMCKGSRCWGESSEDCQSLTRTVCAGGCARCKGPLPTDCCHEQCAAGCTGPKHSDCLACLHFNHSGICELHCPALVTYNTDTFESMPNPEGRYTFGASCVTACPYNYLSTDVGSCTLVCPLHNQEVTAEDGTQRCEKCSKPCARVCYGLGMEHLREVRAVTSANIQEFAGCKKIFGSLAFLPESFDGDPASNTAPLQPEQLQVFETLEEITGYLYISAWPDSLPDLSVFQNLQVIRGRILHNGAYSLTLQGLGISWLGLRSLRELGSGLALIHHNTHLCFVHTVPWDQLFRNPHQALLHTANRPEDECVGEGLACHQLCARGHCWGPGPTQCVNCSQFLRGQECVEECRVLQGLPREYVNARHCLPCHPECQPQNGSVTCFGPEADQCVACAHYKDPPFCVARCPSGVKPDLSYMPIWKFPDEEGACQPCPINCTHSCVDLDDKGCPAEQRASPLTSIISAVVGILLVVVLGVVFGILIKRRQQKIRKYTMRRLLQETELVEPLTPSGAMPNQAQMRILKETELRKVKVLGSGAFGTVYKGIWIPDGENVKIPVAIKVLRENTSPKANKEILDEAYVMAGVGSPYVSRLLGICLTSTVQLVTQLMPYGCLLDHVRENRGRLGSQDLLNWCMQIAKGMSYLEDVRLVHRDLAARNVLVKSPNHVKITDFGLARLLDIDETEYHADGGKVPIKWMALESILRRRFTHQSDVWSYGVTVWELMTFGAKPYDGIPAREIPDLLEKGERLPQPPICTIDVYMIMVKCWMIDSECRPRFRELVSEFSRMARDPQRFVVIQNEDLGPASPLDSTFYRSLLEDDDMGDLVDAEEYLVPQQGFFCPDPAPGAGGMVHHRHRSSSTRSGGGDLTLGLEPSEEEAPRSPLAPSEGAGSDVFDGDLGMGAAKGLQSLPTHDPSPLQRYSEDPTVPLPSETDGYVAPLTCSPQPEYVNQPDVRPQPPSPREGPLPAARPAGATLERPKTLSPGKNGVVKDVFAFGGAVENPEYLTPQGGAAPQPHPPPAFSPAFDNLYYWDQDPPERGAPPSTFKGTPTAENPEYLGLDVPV
Sequence of Insulin-like growth factor 1 receptor (P08069 31-736 limits assumed): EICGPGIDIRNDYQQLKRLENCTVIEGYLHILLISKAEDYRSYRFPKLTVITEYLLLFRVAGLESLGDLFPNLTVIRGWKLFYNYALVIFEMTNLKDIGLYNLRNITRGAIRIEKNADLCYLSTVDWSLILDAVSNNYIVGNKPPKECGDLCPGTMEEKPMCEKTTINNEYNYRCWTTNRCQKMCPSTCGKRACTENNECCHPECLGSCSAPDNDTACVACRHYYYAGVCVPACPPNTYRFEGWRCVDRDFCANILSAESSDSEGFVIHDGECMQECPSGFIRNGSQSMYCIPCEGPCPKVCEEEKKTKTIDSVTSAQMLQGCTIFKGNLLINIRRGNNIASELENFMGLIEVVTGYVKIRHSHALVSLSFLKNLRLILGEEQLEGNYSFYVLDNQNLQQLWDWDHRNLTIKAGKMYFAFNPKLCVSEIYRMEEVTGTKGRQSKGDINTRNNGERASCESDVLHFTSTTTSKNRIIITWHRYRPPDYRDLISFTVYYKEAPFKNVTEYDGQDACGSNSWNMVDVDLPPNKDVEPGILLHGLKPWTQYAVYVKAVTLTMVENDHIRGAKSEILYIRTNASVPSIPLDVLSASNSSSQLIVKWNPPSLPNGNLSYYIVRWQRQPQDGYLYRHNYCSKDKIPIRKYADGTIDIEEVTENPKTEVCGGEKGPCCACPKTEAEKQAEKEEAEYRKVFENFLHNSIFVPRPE
Sequence of Insulin-like growth factor 1 receptor (P08069 741-1367 limits assumed): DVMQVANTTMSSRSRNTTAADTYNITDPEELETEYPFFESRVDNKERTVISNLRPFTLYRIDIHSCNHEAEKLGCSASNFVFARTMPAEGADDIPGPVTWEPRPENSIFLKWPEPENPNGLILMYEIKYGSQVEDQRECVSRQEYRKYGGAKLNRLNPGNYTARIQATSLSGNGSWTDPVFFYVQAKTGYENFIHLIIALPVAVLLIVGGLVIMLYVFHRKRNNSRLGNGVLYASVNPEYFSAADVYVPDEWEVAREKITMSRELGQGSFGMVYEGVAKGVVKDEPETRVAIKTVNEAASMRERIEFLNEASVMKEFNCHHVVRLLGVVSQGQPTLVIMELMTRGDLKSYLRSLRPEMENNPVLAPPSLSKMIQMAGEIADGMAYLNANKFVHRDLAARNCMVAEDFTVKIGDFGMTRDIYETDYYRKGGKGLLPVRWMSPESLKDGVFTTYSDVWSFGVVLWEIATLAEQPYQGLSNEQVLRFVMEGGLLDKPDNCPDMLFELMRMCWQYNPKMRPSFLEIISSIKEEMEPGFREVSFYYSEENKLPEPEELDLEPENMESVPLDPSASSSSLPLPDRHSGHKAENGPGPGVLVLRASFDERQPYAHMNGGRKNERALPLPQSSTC
Sequence of Epidermal growth factor receptor (P00533 whole entry): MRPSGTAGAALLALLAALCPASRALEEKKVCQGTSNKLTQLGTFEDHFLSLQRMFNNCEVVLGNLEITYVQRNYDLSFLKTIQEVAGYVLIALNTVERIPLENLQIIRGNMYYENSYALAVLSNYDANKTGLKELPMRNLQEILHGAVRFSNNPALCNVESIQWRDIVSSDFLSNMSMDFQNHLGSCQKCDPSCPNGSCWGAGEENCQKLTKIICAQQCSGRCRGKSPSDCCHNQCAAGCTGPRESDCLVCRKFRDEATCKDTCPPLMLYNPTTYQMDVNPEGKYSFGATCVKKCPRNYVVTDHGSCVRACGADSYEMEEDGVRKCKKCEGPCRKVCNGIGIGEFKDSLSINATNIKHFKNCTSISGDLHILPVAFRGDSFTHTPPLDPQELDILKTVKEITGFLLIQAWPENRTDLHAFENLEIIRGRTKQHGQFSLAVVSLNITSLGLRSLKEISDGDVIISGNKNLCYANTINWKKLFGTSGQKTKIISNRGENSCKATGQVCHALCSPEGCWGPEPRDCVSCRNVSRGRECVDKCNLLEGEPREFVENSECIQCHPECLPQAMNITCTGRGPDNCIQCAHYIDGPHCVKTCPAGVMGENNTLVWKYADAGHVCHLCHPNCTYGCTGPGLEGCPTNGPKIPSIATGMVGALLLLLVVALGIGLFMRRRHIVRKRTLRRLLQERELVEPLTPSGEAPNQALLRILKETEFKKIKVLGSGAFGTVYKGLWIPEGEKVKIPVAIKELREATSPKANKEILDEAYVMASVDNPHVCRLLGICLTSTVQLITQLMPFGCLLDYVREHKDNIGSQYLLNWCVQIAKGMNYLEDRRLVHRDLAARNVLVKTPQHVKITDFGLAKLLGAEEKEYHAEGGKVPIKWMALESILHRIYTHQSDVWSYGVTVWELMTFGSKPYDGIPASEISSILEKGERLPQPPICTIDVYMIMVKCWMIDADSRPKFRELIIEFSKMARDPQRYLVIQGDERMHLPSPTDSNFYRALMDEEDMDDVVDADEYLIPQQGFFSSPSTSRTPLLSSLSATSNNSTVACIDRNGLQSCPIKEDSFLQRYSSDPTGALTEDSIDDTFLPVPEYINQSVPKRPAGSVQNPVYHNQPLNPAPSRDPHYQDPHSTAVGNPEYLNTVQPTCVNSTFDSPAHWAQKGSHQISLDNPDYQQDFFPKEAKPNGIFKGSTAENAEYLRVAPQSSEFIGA
Sequence of Platelet-derived growth factor receptor beta (P09619 whole entry): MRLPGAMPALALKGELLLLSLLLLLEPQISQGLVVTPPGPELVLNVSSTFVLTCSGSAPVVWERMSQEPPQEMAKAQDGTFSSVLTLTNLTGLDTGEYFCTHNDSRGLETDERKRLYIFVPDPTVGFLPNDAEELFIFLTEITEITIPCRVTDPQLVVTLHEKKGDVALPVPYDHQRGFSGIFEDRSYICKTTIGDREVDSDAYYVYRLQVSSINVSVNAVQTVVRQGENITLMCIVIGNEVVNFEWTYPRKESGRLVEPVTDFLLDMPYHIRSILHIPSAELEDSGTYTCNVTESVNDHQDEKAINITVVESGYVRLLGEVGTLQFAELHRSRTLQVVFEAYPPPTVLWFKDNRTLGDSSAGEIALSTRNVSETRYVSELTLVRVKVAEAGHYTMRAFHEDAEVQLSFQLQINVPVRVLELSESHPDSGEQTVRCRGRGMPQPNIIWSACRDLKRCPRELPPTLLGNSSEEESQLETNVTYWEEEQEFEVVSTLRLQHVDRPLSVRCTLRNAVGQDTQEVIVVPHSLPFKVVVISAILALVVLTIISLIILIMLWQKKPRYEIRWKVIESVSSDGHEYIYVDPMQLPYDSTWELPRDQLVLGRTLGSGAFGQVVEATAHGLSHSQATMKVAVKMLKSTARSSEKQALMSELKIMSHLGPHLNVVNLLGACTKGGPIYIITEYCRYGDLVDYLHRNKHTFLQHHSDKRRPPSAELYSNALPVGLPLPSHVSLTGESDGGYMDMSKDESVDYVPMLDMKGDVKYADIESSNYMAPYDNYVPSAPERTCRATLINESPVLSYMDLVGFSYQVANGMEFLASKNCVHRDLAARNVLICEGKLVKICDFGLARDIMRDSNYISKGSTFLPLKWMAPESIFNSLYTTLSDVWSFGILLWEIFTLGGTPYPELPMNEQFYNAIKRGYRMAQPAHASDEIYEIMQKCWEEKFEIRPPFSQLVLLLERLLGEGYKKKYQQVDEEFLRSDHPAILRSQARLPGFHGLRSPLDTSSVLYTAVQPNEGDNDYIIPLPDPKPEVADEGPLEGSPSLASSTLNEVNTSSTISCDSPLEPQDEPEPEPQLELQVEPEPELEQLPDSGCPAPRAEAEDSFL

`O=C1Nc2ccc(Cl)cc2/C1=C/c1ccc[nH]1`: the IC50 in assay [1] was 85.4 µM; in assay [2], more than 100 µM; at FLK-1 receptor, 3 µM; in assay [3], more than 100 µM; in assay [4], more than 100 µM.
Turning to `Cc1cccc2c1/C(=C/c1ccc[nH]1)C(=O)N2`, the IC50 was more than 100 µM in assay [1]; more than 100 µM in assay [2]; 31 µM on FLK-1 receptor; more than 100 µM in assay [3]; more than 100 µM in assay [4].
As to `CN1C(=O)/C(=C\c2ccc(Br)cc2)c2ccccc21`, the IC50 is more than 100 µM in assay [1]; more than 100 µM in assay [2]; more than 100 µM against FLK-1 receptor; 22.5 µM in assay [3]; more than 100 µM in assay [4].
On to `O=C1Nc2ccccc2/C1=C/c1sccc1Br`, for which the IC50 in assay [1] was more than 100 µM; in assay [2], more than 100 µM; at FLK-1 receptor, 15.4 µM; in assay [3], more than 100 µM; in assay [4] it was more than 100 µM.
In the case of `CCc1ccc(/C=C2/C(=O)Nc3ccccc32)o1`, the IC50 was more than 100 µM in assay [1]; more than 100 µM in assay [2]; 41.2 µM against FLK-1 receptor; more than 100 µM in assay [3]; more than 100 µM in assay [4].
Consider `CCc1ccc(/C=C2\C(=O)Nc3ccccc32)s1`, for which the IC50 in assay [1] was more than 100 µM; in assay [2], 44 µM; at FLK-1 receptor, 3.4 µM; in assay [3], more than 100 µM; in assay [4], more than 100 µM.
As to `CSc1ccc(/C=C2\C(=O)Nc3cccc(C)c32)s1`, the IC50 in assay [1] is more than 100 µM; in assay [2], more than 100 µM; against FLK-1 receptor, more than 100 µM; in assay [3] it was 91.4 µM; in assay [4] it was more than 100 µM.
With `COc1c(Br)cc(/C=C2\C(=O)Nc3ccc(Cl)cc32)cc1C(C)(C)C`, the IC50 in assay [1] was more than 100 µM; in assay [2] it was more than 100 µM; on FLK-1 receptor, more than 100 µM; in assay [3] it was 15.2 µM; in assay [4], more than 100 µM.
`COc1ccc(/C=C2\C(=O)Nc3ccccc32)cc1C(C)(C)C`: the IC50 in assay [1] is more than 100 µM; in assay [2] it was more than 100 µM; against FLK-1 receptor, more than 100 µM; in assay [3] it was 13.2 µM; in assay [4], more than 100 µM.
As for `O=C1Nc2ccccc2/C1=C/c1n[nH]cc1Cl`, the IC50 is more than 100 µM in assay [1]; more than 100 µM in assay [2]; 7.41 µM on FLK-1 receptor; more than 100 µM in assay [3]; more than 100 µM in assay [4].
For the compound `Cc1cccc2c1/C(=C/c1ccc(N3CCOCC3)cc1)C(=O)N2`, the IC50 in assay [1] was 49.9 µM; in assay [2], more than 100 µM; on FLK-1 receptor, 2.1 µM; in assay [3], 66.6 µM; in assay [4], more than 100 µM.
For `Cc1cccc2c1/C(=C/c1ccc(N(C)C)cc1)C(=O)N2`, the IC50 in assay [1] was more than 100 µM; in assay [2], more than 100 µM; at FLK-1 receptor it was 3 µM; in assay [3], more than 100 µM; in assay [4], more than 100 µM.
With `Cc1c[nH]c(/C=C2\C(=O)Nc3ccccc32)c1C`, the IC50 in assay [1] was more than 100 µM; in assay [2], more than 100 µM; against FLK-1 receptor, 2.7 µM; in assay [3], more than 100 µM; in assay [4], more than 100 µM.
With `COc1c(Br)cc(/C=C2\C(=O)Nc3ccccc32)cc1C(C)(C)C`, the IC50 in assay [1] is more than 100 µM; in assay [2], 19 µM; at FLK-1 receptor, 46.6 µM; in assay [3] it was 19 µM; in assay [4], more than 100 µM.
For `COC(=O)CCc1c[nH]c(/C=C2\C(=O)Nc3ccccc32)c1C`, the IC50 is 66 µM in assay [1]; more than 100 µM in assay [2]; 6.3 µM against FLK-1 receptor; more than 100 µM in assay [3]; more than 100 µM in assay [4].
As to `CCOC(=O)c1c(C)[nH]c(/C=C2\C(=O)Nc3ccccc32)c1C`, the IC50 in assay [1] was more than 100 µM; in assay [2], more than 100 µM; against FLK-1 receptor, 0.07 µM; in assay [3], more than 100 µM; in assay [4], more than 100 µM.
Turning to `O=C1Nc2ccc([N+](=O)[O-])cc2/C1=C/c1ccc[nH]1`, the IC50 in assay [1] was 41.7 µM; in assay [2], more than 100 µM; at FLK-1 receptor, more than 100 µM; in assay [3] it was more than 100 µM; in assay [4] it was more than 100 µM.
Consider `Cc1c[nH]c(/C=C2\C(=O)Nc3ccccc32)c1CCC(=O)O`, for which the IC50 in assay [1] was 60.9 µM; in assay [2], more than 100 µM; against FLK-1 receptor, 0.4 µM; in assay [3] it was more than 100 µM; in assay [4], more than 100 µM.
Regarding `O=C1Nc2cc(F)ccc2/C1=C/c1ccc[nH]1`, the IC50 was 2.8 µM in assay [1]; more than 100 µM in assay [2]; less than 0.78 µM against FLK-1 receptor; more than 100 µM in assay [3]; more than 100 µM in assay [4].
Regarding `O=C1Nc2ccccc2/C1=C/c1ccc(C(=O)O)cc1`, the IC50 (in assay [1]; in assay [2]; against FLK-1 receptor; in assay [3]; in assay [4]) was more than 100 µM in each case.
`C/C(=C1\C(=O)Nc2ccccc21)c1ccc(N2CCCCC2)cc1`: the IC50 (in assay [1]; in assay [2]; against FLK-1 receptor; in assay [3]; in assay [4]) was more than 100 µM in each case.
Consider `O=C1Nc2ccc(Cl)cc2/C1=C/c1ccc(N2CCOCC2)cc1`, for which the IC50 in assay [1] is more than 10 µM; in assay [2] it was more than 10 µM; against FLK-1 receptor it was 4.1 µM; in assay [3], more than 10 µM; in assay [4] it was more than 10 µM.
On to `Cn1cccc1/C=C1\C(=O)Nc2ccccc21`, for which the IC50 in assay [1] is more than 100 µM; in assay [2], more than 100 µM; against FLK-1 receptor it was 20.4 µM; in assay [3], more than 100 µM; in assay [4], more than 100 µM.
As for `O=C1Nc2ccccc2/C1=C/c1ccc(N2CCCC2)cc1`, the IC50 in assay [1] is more than 100 µM; in assay [2] it was more than 100 µM; against FLK-1 receptor, 3 µM; in assay [3], more than 100 µM; in assay [4], more than 100 µM.
Take `O=C1Nc2ccccc2/C1=C\c1ccco1`: the IC50 (in assay [1]; in assay [2]; at FLK-1 receptor; in assay [3]; in assay [4]) was more than 100 µM in each case.
Turning to `O=CN1CCN(c2ccc(/C=C3\C(=O)Nc4ccccc43)cc2)CC1`, the IC50 was 5.1 µM in assay [1]; more than 100 µM in assay [2]; 1.6 µM at FLK-1 receptor; 90.2 µM in assay [3]; more than 100 µM in assay [4].
On to `Cc1cc(C)c(/C=C2\C(=O)Nc3cccc(C)c32)[nH]1`, for which the IC50 in assay [1] is more than 100 µM; in assay [2] it was more than 100 µM; against FLK-1 receptor it was 1 µM; in assay [3], more than 100 µM; in assay [4], more than 100 µM.
In the case of `O=CN1CCN(c2ccc(/C=C3\C(=O)Nc4ccc(Br)cc43)cc2)CC1`, the IC50 is 13.8 µM in assay [1]; more than 50 µM in assay [2]; more than 50 µM at FLK-1 receptor; more than 50 µM in assay [3]; more than 50 µM in assay [4].
As for `CN(C)c1ccc(/C=C2\C(=O)N(C)c3ccccc32)cc1`, the IC50 in assay [1] was more than 100 µM; in assay [2], more than 100 µM; at FLK-1 receptor, 22.6 µM; in assay [3], more than 100 µM; in assay [4], more than 100 µM.
On to `Cc1cccc2c1/C(=C/c1ccc(N3CCN(C=O)CC3)cc1)C(=O)N2`, for which the IC50 is 24.5 µM in assay [1]; more than 100 µM in assay [2]; 2.5 µM on FLK-1 receptor; more than 100 µM in assay [3]; 67.6 µM in assay [4].
Turning to `Cc1ccc(/C=C2/C(=O)Nc3ccccc32)o1`, the IC50 was more than 100 µM in assay [1]; more than 100 µM in assay [2]; 73.6 µM at FLK-1 receptor; more than 100 µM in assay [3]; more than 100 µM in assay [4].
Consider `O=C1Nc2ccccc2/C1=C/c1ccc(Br)cc1`, for which the IC50 (in assay [1]; in assay [2]; against FLK-1 receptor; in assay [3]; in assay [4]) was more than 100 µM each time.
`COc1ccc(/C=C2\C(=O)Nc3ccc(Cl)cc32)cc1C(C)(C)C`: the IC50 in assay [1] is more than 100 µM; in assay [2], 19.3 µM; against FLK-1 receptor, more than 100 µM; in assay [3], 16.2 µM; in assay [4] it was more than 100 µM.
In the case of `Cn1cc(Cl)c(/C=C2\C(=O)Nc3ccccc32)n1`, the IC50 (in assay [1]; in assay [2]; against FLK-1 receptor; in assay [3]; in assay [4]) was more than 100 µM throughout.
On to `CN(C)c1ccc(/C=C2\C(=O)Nc3cc(F)ccc32)cc1`, for which the IC50 in assay [1] was 66 µM; in assay [2], more than 100 µM; at FLK-1 receptor, 4.6 µM; in assay [3] it was more than 100 µM; in assay [4], more than 100 µM.

The IC50 is the concentration at which inhibition is half-maximal. Read a high IC50 as lower potency.
